Measured values taken from patent publication US20240409536A1, “COMPOUNDS AND METHODS FOR MODULATING SPLICING” (REMIX THERAPEUTICS INC., priority 2021, published 2024).
pIC50: −log10 of the molar value. Counter-ions that a name gives are not always drawn.

Experiments:
MYB mRNA [1] = experiment: Splicing RT-qPCR assay, MYB canonical (CJ) and alternative (AJ) junction mRNA; type: cell-based; details: Homo sapiens, A673 or K562 cells, 24 hours; for pIC50: decrease in canonical junction mRNA; for AC50: increase in alternative junction mRNA
Procedure, shortened: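 Canonical and alternative junction mRNAs measured by cell-lysate one-step RT-qPCR, normalized to PPIA in A673 or GAPDH/GUSB in K562. Cells received compound for 24 h at 37 °C, 5% CO2, 11-point 3-fold series from 10 uM final top dose, DMSO at most 0.25%.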

MYB mRNA [2] = experiment: Gene panel canonical junction qPCR assay, MYB CJ mRNA decrease; type: cell-based, human; details: Homo sapiens, canonical junction qPCR, read-out: MYB IC50 (decrease in CJ mRNA levels)
Procedure, shortened: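 IC50 values describe loss of canonical-junction transcript, fitted by 4-parameter logistic to percent response derived from fixed ΔCt windows. Read-out: RT-qPCR on lysates of compound-treated K562 or A673 cells, probes overlapping the exon junction, ΔΔCt versus housekeeping gene and DMSO control.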

Row | SMILES | pIC50 (MYB mRNA [1]) | pIC50 (MYB mRNA [2]) | AC50 (MYB mRNA [1]) [nM]
1 | Cc1cn2cc(NC(=O)c3ccc(N4C[C@H]5C[C@@H]4C5N(C)C)c4ccnnc34)cc(F)c2n1 (stereo partly drawn) [Compound 155] | 5.00 to 6.00 | 5.00 to 6.00 | 1000 to 10000
2 | O=C(Nc1cn[nH]c1)c1ccc(N2CCNCC2)c2ccnnc12 [Compound 126] | < 5.00 | < 5.00 | > 10000
3 | CNC1CCN(c2ccc(C(=O)Nc3cc(F)c4nc(C)cn4c3)c3nc(C)ccc23)C1 (stereo not drawn) [Compound 196, N-{8-fluoro-2-methylimidazo[1,2-a]pyridin-6-yl}-2-methyl-5-[3-(methylamino)pyrrolidin-1-yl]quinoline-8-carboxamide 2,2,2-trifluoroacetate] | 6.00 to 7.00 | 6.00 to 7.00 | 100 to 1000
4 | Cc1cn2cc(NC(=O)c3ccc(N4CCNCC4)c4nnccc34)cc(F)c2n1 [Compound 166, N-(8-fluoro-2-methylimidazo[1,2-a]pyridin-6-yl)-8-(piperazin-1-yl)cinnoline-5-carboxamide 2,2,2-trifluoroacetate] | < 5.00 | < 5.00 | > 10000
5 | COc1cnc2c(N3CCC(N(C)C)CC3)ccc(C(=O)Nc3cc(F)c4nc(C)cn4c3)c2n1 [Compound 206, 8-[4-(dimethylamino)piperidin-1-yl]-N-{8-fluoro-2-methylimidazo[1,2-a]pyridin-6-yl}-3-methoxyquinoxaline-5-carboxamide; trifluoroacetic acid] | 6.00 to 7.00 | 6.00 to 7.00 | 100 to 1000
6 | CCN1CCC(c2ccc(C(=O)Nc3cc(F)c4nc(C)cn4c3)c3nnccc23)CC1 [Compound 141] | 6.00 to 7.00 | 6.00 to 7.00 | 100 to 1000
7 | Cc1cn2cc(NC(=O)c3ccc(N4CCNCC4)c4ccnnc34)cc(C#N)c2n1 [Compound 167, N-{8-cyano-2-methylimidazo[1,2-a]pyridin-6-yl}-5-(piperazin-1-yl)cinnoline-8-carboxamide trifluoroacetic acid salt] | 6.00 to 7.00 | 6.00 to 7.00 | 100 to 1000
8 | Cc1cn2cc(NC(=O)c3ccc(C4CCNC5(CC5)C4)c4nccnc34)cc(F)c2n1 (stereo not drawn) [Compound 375] | 6.00 to 7.00 | 6.00 to 7.00 | 100 to 1000
9 | Cc1cn2cc(NC(=O)c3ccc(N(C)[C@@H]4C[C@H]5CC[C@@H](C4)N5)c4ccnnc34)cc(F)c2n1 [Compound 156] | 5.00 to 6.00 | 5.00 to 6.00 | 1000 to 10000
10 | Cc1cn2cc(NC(=O)c3ccc(N4CCNCC4)c4ccnnc34)nc(C)c2n1 [Compound 164, N-{2,8-dimethylimidazo[1,2-a]pyrazin-6-yl}-5-(piperazin-1-yl)cinnoline-8-carboxamide 2,2,2-trifluoroacetate] | 6.00 to 7.00 | 6.00 to 7.00 | 100 to 1000
11 | CNC1CCN(c2ccc(C(=O)Nc3cc(F)c4nc(C)cn4c3)c3nccnc23)C1 (stereo not drawn) [Compound 190, N-{8-fluoro-2-methylimidazo[1,2-a]pyridin-6-yl}-8-[3-(methylamino)pyrrolidin-1-yl]quinoxaline-5-carboxamide] | 6.00 to 7.00 | 6.00 to 7.00 | < 100
12 | Cc1c(O)c(NC(=O)c2ccc(N3CCNCC3)c3ccnnc23)cc2cn(C)nc12 [Compound 181, N-(6-hydroxy-2,7-dimethylindazol-5-yl)-5-(piperazin-1-yl)cinnoline-8-carboxamide] | 6.00 to 7.00 | 6.00 to 7.00 | 1000 to 10000
13 | CN[C@@H]1CCN(c2ccc(C(=O)Nc3cc(F)c4nc(C)cn4c3)c3nc(OC)cnc23)C1 [Compound 204, (R)—N-{8-fluoro-2-methylimidazo[1,2-a]pyridin-6-yl}-3-methoxy-8-[3-(methylamino)pyrrolidin-1-yl]quinoxaline-5-carboxamide; trifluoroacetic acid] | 5.00 to 6.00 | 5.00 to 6.00 | > 10000
14 | Cc1cnc2c(N3C[C@@H](C)N[C@@H](C)C3)ccc(C(=O)Nc3cc(F)c4nc(C)cn4c3)c2n1 [Compound 216, 8-((3R,5S)-3,5-dimethylpiperazin-1-yl)-N-{8-fluoro-2-methylimidazo[1,2-a]pyridin-6-yl}-3-methylquinoxaline-5-carboxamide] | 6.00 to 7.00 | 6.00 to 7.00 | < 100
15 | CC(=O)c1cc(NC(=O)c2ccc(N3CCNCC3)c3ccnnc23)cn2cc(C)nc12 [Compound 163, N-{8-acetyl-2-methylimidazo[1,2-a]pyridin-6-yl}-5-(piperazin-1-yl)cinnoline-8-carboxamide] | 5.00 to 6.00 | 5.00 to 6.00 | 1000 to 10000
16 | Cc1cn2cc(NC(=O)c3ccc(N4CCNC5(CCOCC5)C4)c4nccnc34)cc(F)c2n1 [Compound 374] | 6.00 to 7.00 | 6.00 to 7.00 | 100 to 1000
17 | Cc1cn2cc(NC(=O)c3ccc(C4CCNCC4)c4nccnc34)cc(F)c2n1 [Compound 371] | 6.00 to 7.00 | 6.00 to 7.00 | < 100
18 | Cc1cn2cc(NC(=O)c3ccc(N4CCNCC4)c4ccnnc34)cc(C)c2n1 [Compound 125] | 6.00 to 7.00 | 6.00 to 7.00 | 100 to 1000
19 | Cc1cn2cc(NC(=O)c3ccc(N4CCNCC4)c4ccnnc34)cc(C(C)O)c2n1 (stereo not drawn) [Compound 182, N-[8-(1-hydroxyethyl)-2-methylimidazo[1,2-a]pyridin-6-yl]-5-(piperazin-1-yl)cinnoline-8-carboxamide trifluoroacetate] | < 5.00 | < 5.00 | > 10000

Now from value to compound, other results behind:

Row | pIC50 (MYB mRNA [1]) | pIC50 (MYB mRNA [2]) | SMILES | AC50 (MYB mRNA [1]) [nM]
20 | > 7.00 | > 7.00 | Cc1cn2cc(NC(=O)c3ccc(N4CC(C)(C)NC(C)(C)C4)c4nccnc34)cc(F)c2n1 [Compound 219, N-{8-fluoro-2-methylimidazo[1,2-a]pyridin-6-yl}-8-(3,3,5,5-tetramethylpiperazin-1-yl)quinoxaline-5-carboxamide] | < 100
21 | > 7.00 | > 7.00 | COc1ncc2c(N3C[C@@H](C)N[C@@H](C)C3)ccc(C(=O)Nc3cn4cc(C)nc4c(OC)n3)c2n1 [Compound 378] | < 100
22 | > 7.00 | > 7.00 | Cc1cn2cc(NC(=O)c3ccc(N4CCNCC4)c4cccnc34)cc(F)c2n1 [Compound 165, N-{8-fluoro-2-methylimidazo[1,2-a]pyridin-6-yl}-5-(piperazin-1-yl)quinoline-8-carboxamide] | < 100
23 | > 7.00 | > 7.00 | CCNC1CCN(c2ccc(C(=O)Nc3cc(F)c4nc(C)cn4c3)c3nccnc23)CC1 [Compound 191, 8-[4-(ethylamino)piperidin-1-yl]-N-{8-fluoro-2-methylimidazo[1,2-a]pyridin-6-yl}quinoxaline-5-carboxamide] | 100 to 1000
24 | > 7.00 | > 7.00 | COc1cnc2c(N3CCNCC3)ccc(C(=O)Nc3cc(F)c4nc(C)cn4c3)c2n1 [Compound 207, N-{8-fluoro-2-methylimidazo[1,2-a]pyridin-6-yl}-3-methoxy-8-(piperazin-1-yl)quinoxaline-5-carboxamide; bis(trifluoroacetic acid)] | < 100
25 | > 7.00 | > 7.00 | Cc1cn2cc(NC(=O)c3ccc(N4CCN[C@H](C)C4)c4ccnnc34)cc(F)c2n1 [Compound 146] | < 100
26 | > 7.00 | > 7.00 | COCCOc1ccc2c(N3CCNCC3)ccc(C(=O)Nc3cc(F)c4nc(C)cn4c3)c2n1 [Compound 173, N-{8-fluoro-2-methylimidazo[1,2-a]pyridin-6-yl}-2-(2-methoxyethoxy)-5-(piperazin-1-yl)quinoline-8-carboxamide] | < 100
27 | > 7.00 | > 7.00 | Cc1ccc2c(N3C[C@@H](C)N[C@@H](C)C3)ccc(C(=O)Nc3cc(F)c4nc(C)cn4c3)c2n1 [Compound 214, 5-[(3R,5S)-3,5-dimethylpiperazin-1-yl]-N-{8-fluoro-2-methylimidazo[1,2-a]pyridin-6-yl}-2-methylquinoline-8-carboxamide] | 100 to 1000
28 | > 7.00 | > 7.00 | CC[C@@H]1CN(c2ccc(C(=O)Nc3cc(F)c4nc(C)cn4c3)c3nnccc23)CCN1 [Compound 151] | 100 to 1000
29 | > 7.00 | > 7.00 | Cc1cn2cc(NC(=O)c3ccc(N4CCNC5(CC5)C4)c4nccnc34)cc(F)c2n1 [Compound 218, 8-{4,7-diazaspiro[2.5]octan-7-yl}-N-{8-fluoro-2-methylimidazo[1,2-a]pyridin-6-yl}quinoxaline-5-carboxamide] | < 100
30 | > 7.00 | > 7.00 | Cc1cn2cc(NC(=O)c3ccc(N4CCN[C@@H](C)C4)c4nccnc34)cc(F)c2n1 [Compound 187, N-{8-fluoro-2-methylimidazo[1,2-a]pyridin-6-yl}-8-(3-methylpiperazin-1-yl) quinoxaline-5-carboxamide] | < 100
31 | > 7.00 | > 7.00 | Cc1cc2c(N3CCNCC3)ccc(C(=O)Nc3cc(F)c4nc(C)cn4c3)c2nn1 [Compound 159] | < 100
32 | > 7.00 | > 7.00 | COc1nc(NC(=O)c2ccc(N3CCNCC3)c3ccnnc23)cn2cc(C)nc12 [Compound 179, N-{8-methoxy-2-methylimidazo[1,2-a]pyrazin-6-yl}-5-(piperazin-1-yl)cinnoline-8-carboxamide] | < 100
33 | > 7.00 | > 7.00 | Cc1cnc2c(N3CCC(N(C)C)CC3)ccc(C(=O)Nc3cc(F)c4nc(C)cn4c3)c2n1 [Compound 200, 8-[4-(dimethylamino)piperidin-1-yl]-N-{8-fluoro-2-methylimidazo[1,2-a]pyridin-6-yl}-3-methylquinoxaline-5-carboxamide] | < 100
